Patent US6358885B1, “Substituted phenylheterocyclic herbicides” (Mississippi State University, priority 1992, dated 2002)

How the values were obtained:
Assay in all cases: Test G preemergence/postemergence greenhouse plant response rating 0 to 100
annual bluegrass = assay type: in vivo, Poa annua; settings: 0 to 100 scale
Text: (§1) Seeds, rhizomes, or plant parts of alfalfa (Medicago ativa), annual bluegrass (Poa annua), bermudagrass (Cynodon dactylon), broadleaf signalgrass (Brachiaria plantaginea), common purslane (Portulaca oleracea), common ragweed (Ambrosia elatior), […] (Paspalum dilatatum), goosegrass (Eleusine indica), guineagrass (Panicum maximum), […] exaltata), johnsongrass (Sorghum halepense), large crabgrass (Digitaria sanguinalis), peanut (Arachis hypoagaea), pitted morningglory (Ipomoea lacunosa), purple nutsedge (Cyperus rotundus), sandbur (Cenchrus echinatus), smooth crabgrass (Digitaria ischaemum) and yellow nutsedge (Cyperus esculentus) were planted into greenhouse pots containing greenhouse planting medium. Each pot contained only one plant species. The test compound was dissolved in a non-phytotoxic solvent and applied preemergence and/or postemergence to the plants. Preemergence applications were made within one day of planting the seeds or plant parts. Postemergence applications were applied when the plants were in the two to four leaf stage (three to twenty cm). Test chemicals were dissolved in a non-phytotoxic solvent and applied preemergence and postemergence to the plants. Untreated control plants and treated plants were placed in the greenhouse and visually evaluated for injury at 13 to 21 days after herbicide application. […] A dash (-) response indicates no test result.

bermudagrass = assay type: in vivo, Cynodon dactylon; settings: 0 to 100 scale
Text: as §1

broadleaf signalgrass = assay type: in vivo, Brachiaria plantaginea; settings: 0 to 100 scale
Text: as §1

common purslane = assay type: in vivo, Portulaca oleracea; settings: 0 to 100 scale
Text: as §1

common ragweed = assay type: in vivo, Ambrosia elatior; settings: 0 to 100 scale
Text: as §1

dallisgrass = assay type: in vivo, Paspalum dilatatum; settings: 0 to 100 scale
Text: as §1

goosegrass = assay type: in vivo, Eleusine indica; settings: 0 to 100 scale
Text: as §1

guineagrass = assay type: in vivo, Panicum maximum; settings: 0 to 100 scale
Text: as §1

itchgrass = assay type: in vivo, Rottboellia exaltata; settings: 0 to 100 scale
Text: as §1

johnsongrass = assay type: in vivo, Sorghum halepense; settings: 0 to 100 scale
Text: as §1

large crabgrass = assay type: in vivo, Digitaria sanguinalis; settings: 0 to 100 scale
Text: as §1

peanut = assay type: in vivo, Arachis hypoagaea; settings: 0 to 100 scale
Text: as §1

pitted morningglory = assay type: in vivo, Ipomoea lacunosa; settings: 0 to 100 scale
Text: as §1

sandbur = assay type: in vivo, Cenchrus echinatus; settings: 0 to 100 scale
Text: as §1

smooth crabgrass = assay type: in vivo, Digitaria ischaemum; settings: 0 to 100 scale
Text: as §1

yellow nutsedge = assay type: in vivo, Cyperus esculentus; settings: Rate 125 g/ha, 0 to 100 scale
Text: as §1

Fc1cc(Cl)c(OC2CCCC2)cc1-c1nn2c(c1Cl)CCCC2 [Compound 24]
0: Plant response rating, Ann Bluegrass (annual bluegrass; POSTEMERGENCE, Rate 125 g/ha) | Plant response rating, Ann Bluegrass (annual bluegrass; POSTEMERGENCE, Rate 250 g/ha) | Plant response rating, Ann Bluegrass (annual bluegrass; PREEMERGENCE, Rate 250 g/ha) | Plant response rating, Bermudagrass (bermudagrass; POSTEMERGENCE, Rate 125 g/ha) | Plant response rating, Bermudagrass (bermudagrass; POSTEMERGENCE, Rate 250 g/ha) | Plant response rating, Bermudagrass (bermudagrass; PREEMERGENCE, Rate 250 g/ha) | Plant response rating, Brdlf Sgnlgrass (broadleaf signalgrass; POSTEMERGENCE, Rate 125 g/ha) | Plant response rating, Brdlf Sgnlgrass (broadleaf signalgrass; POSTEMERGENCE, Rate 250 g/ha) | Plant response rating, Brdlf Sgnlgrass (broadleaf signalgrass; PREEMERGENCE, Rate 250 g/ha) | Plant response rating, Cmn Purslane (common purslane; PREEMERGENCE, Rate 125 g/ha) | Plant response rating, Cmn Purslane (common purslane; PREEMERGENCE, Rate 250 g/ha) | Plant response rating, Cmn Ragweed (common ragweed; POSTEMERGENCE, Rate 250 g/ha) | Plant response rating, Cmn Ragweed (common ragweed; PREEMERGENCE, Rate 250 g/ha) | Plant response rating, Dallisgrass (dallisgrass; POSTEMERGENCE, Rate 125 g/ha) | Plant response rating, Dallisgrass (dallisgrass; POSTEMERGENCE, Rate 250 g/ha) | Plant response rating, Goosegrass (goosegrass; POSTEMERGENCE, Rate 125 g/ha) | Plant response rating, Goosegrass (goosegrass; POSTEMERGENCE, Rate 250 g/ha) | Plant response rating, Guineagrass (guineagrass; POSTEMERGENCE, Rate 125 g/ha) | Plant response rating, Guineagrass (guineagrass; POSTEMERGENCE, Rate 250 g/ha) | Plant response rating, Guineagrass (guineagrass; PREEMERGENCE, Rate 125 g/ha) | Plant response rating, Guineagrass (guineagrass; PREEMERGENCE, Rate 250 g/ha) | Plant response rating, Itchgrass (itchgrass; POSTEMERGENCE, Rate 125 g/ha) | Plant response rating, Itchgrass (itchgrass; POSTEMERGENCE, Rate 250 g/ha) | Plant response rating, Johnsongrass (johnsongrass; POSTEMERGENCE, Rate 125 g/ha) | Plant response rating, Johnsongrass (johnsongrass; POSTEMERGENCE, Rate 250 g/ha) | Plant response rating, Johnsongrass (johnsongrass; PREEMERGENCE, Rate 125 g/ha) | Plant response rating, Johnsongrass (johnsongrass; PREEMERGENCE, Rate 250 g/ha) | Plant response rating, Large Crabgrass (large crabgrass; POSTEMERGENCE, Rate 125 g/ha) | Plant response rating, Large Crabgrass (large crabgrass; POSTEMERGENCE, Rate 250 g/ha) | Plant response rating, Peanuts (peanut; POSTEMERGENCE, Rate 125 g/ha) | Plant response rating, Peanuts (peanut; POSTEMERGENCE, Rate 250 g/ha) | Plant response rating, Peanuts (peanut; PREEMERGENCE, Rate 125 g/ha) | Plant response rating, Peanuts (peanut; PREEMERGENCE, Rate 250 g/ha) | Plant response rating, Pit Morninglory (pitted morningglory; POSTEMERGENCE, Rate 125 g/ha) | Plant response rating, Pit Morninglory (pitted morningglory; PREEMERGENCE, Rate 125 g/ha) | Plant response rating, S. Sandbur (sandbur; POSTEMERGENCE, Rate 125 g/ha) | Plant response rating, S. Sandbur (sandbur; POSTEMERGENCE, Rate 250 g/ha) | Plant response rating, S. Sandbur (sandbur; PREEMERGENCE, Rate 250 g/ha) | Plant response rating, Smooth Crabgras (smooth crabgrass; POSTEMERGENCE, Rate 125 g/ha) | Plant response rating, Smooth Crabgras (smooth crabgrass; POSTEMERGENCE, Rate 250 g/ha) | Plant response rating, Smooth Crabgras (smooth crabgrass; PREEMERGENCE, Rate 125 g/ha) | Plant response rating, Smooth Crabgras (smooth crabgrass; PREEMERGENCE, Rate 250 g/ha) | Plant response rating, Yellow Nutsedge (yellow nutsedge; POSTEMERGENCE) | Plant response rating, Yellow Nutsedge (yellow nutsedge; PREEMERGENCE)
50: Plant response rating, Cmn Ragweed (common ragweed; POSTEMERGENCE, Rate 125 g/ha) | Plant response rating, Pit Morninglory (pitted morningglory; PREEMERGENCE, Rate 250 g/ha)
80: Plant response rating, Cmn Purslane (common purslane; POSTEMERGENCE, Rate 125 g/ha) | Plant response rating, Large Crabgrass (large crabgrass; PREEMERGENCE, Rate 125 g/ha)
40: Plant response rating, Cmn Ragweed (common ragweed; PREEMERGENCE, Rate 125 g/ha) | Plant response rating, Goosegrass (goosegrass; PREEMERGENCE, Rate 250 g/ha) | Plant response rating, S. Sandbur (sandbur; PREEMERGENCE, Rate 125 g/ha)
30: Plant response rating, Ann Bluegrass (annual bluegrass; PREEMERGENCE, Rate 125 g/ha) | Plant response rating, Bermudagrass (bermudagrass; PREEMERGENCE, Rate 125 g/ha) | Plant response rating, Dallisgrass (dallisgrass; PREEMERGENCE, Rate 250 g/ha) | Plant response rating, Pit Morninglory (pitted morningglory; POSTEMERGENCE, Rate 250 g/ha)
100: Plant response rating, Brdlf Sgnlgrass (broadleaf signalgrass; PREEMERGENCE, Rate 125 g/ha) | Plant response rating, Itchgrass (itchgrass; PREEMERGENCE, Rate 125 g/ha)
90: Plant response rating, Goosegrass (goosegrass; PREEMERGENCE, Rate 125 g/ha) | Plant response rating, Large Crabgrass (large crabgrass; PREEMERGENCE, Rate 250 g/ha)
20: Plant response rating, Dallisgrass (dallisgrass; PREEMERGENCE, Rate 125 g/ha) | Plant response rating, Itchgrass (itchgrass; PREEMERGENCE, Rate 250 g/ha)
70: Plant response rating, Cmn Purslane (common purslane; POSTEMERGENCE, Rate 250 g/ha)

CCCOc1cc(-c2nn3c(c2Cl)CCCC3)c(F)cc1Cl [Compound 23]
60: Plant response rating, Cmn Ragweed (common ragweed; POSTEMERGENCE, Rate 125 g/ha)
90: Plant response rating, Goosegrass (goosegrass; PREEMERGENCE, Rate 125 g/ha)
20: Plant response rating, Cmn Ragweed (common ragweed; POSTEMERGENCE, Rate 250 g/ha) | Plant response rating, Dallisgrass (dallisgrass; PREEMERGENCE, Rate 250 g/ha) | Plant response rating, Smooth Crabgras (smooth crabgrass; PREEMERGENCE, Rate 250 g/ha)
0: Plant response rating, Ann Bluegrass (annual bluegrass; POSTEMERGENCE, Rate 125 g/ha) | Plant response rating, Ann Bluegrass (annual bluegrass; POSTEMERGENCE, Rate 250 g/ha) | Plant response rating, Ann Bluegrass (annual bluegrass; PREEMERGENCE, Rate 125 g/ha) | Plant response rating, Ann Bluegrass (annual bluegrass; PREEMERGENCE, Rate 250 g/ha) | Plant response rating, Bermudagrass (bermudagrass; POSTEMERGENCE, Rate 125 g/ha) | Plant response rating, Bermudagrass (bermudagrass; POSTEMERGENCE, Rate 250 g/ha) | Plant response rating, Bermudagrass (bermudagrass; PREEMERGENCE, Rate 125 g/ha) | Plant response rating, Brdlf Sgnlgrass (broadleaf signalgrass; POSTEMERGENCE, Rate 125 g/ha) | Plant response rating, Brdlf Sgnlgrass (broadleaf signalgrass; POSTEMERGENCE, Rate 250 g/ha) | Plant response rating, Brdlf Sgnlgrass (broadleaf signalgrass; PREEMERGENCE, Rate 125 g/ha) | Plant response rating, Brdlf Sgnlgrass (broadleaf signalgrass; PREEMERGENCE, Rate 250 g/ha) | Plant response rating, Cmn Purslane (common purslane; PREEMERGENCE, Rate 125 g/ha) | Plant response rating, Cmn Ragweed (common ragweed; PREEMERGENCE, Rate 125 g/ha) | Plant response rating, Cmn Ragweed (common ragweed; PREEMERGENCE, Rate 250 g/ha) | Plant response rating, Dallisgrass (dallisgrass; POSTEMERGENCE, Rate 125 g/ha) | Plant response rating, Dallisgrass (dallisgrass; POSTEMERGENCE, Rate 250 g/ha) | Plant response rating, Dallisgrass (dallisgrass; PREEMERGENCE, Rate 125 g/ha) | Plant response rating, Goosegrass (goosegrass; POSTEMERGENCE, Rate 125 g/ha) | Plant response rating, Goosegrass (goosegrass; POSTEMERGENCE, Rate 250 g/ha) | Plant response rating, Guineagrass (guineagrass; POSTEMERGENCE, Rate 125 g/ha) | Plant response rating, Guineagrass (guineagrass; POSTEMERGENCE, Rate 250 g/ha) | Plant response rating, Guineagrass (guineagrass; PREEMERGENCE, Rate 125 g/ha) | Plant response rating, Guineagrass (guineagrass; PREEMERGENCE, Rate 250 g/ha) | Plant response rating, Itchgrass (itchgrass; POSTEMERGENCE, Rate 125 g/ha) | Plant response rating, Itchgrass (itchgrass; POSTEMERGENCE, Rate 250 g/ha) | Plant response rating, Itchgrass (itchgrass; PREEMERGENCE, Rate 125 g/ha) | Plant response rating, Itchgrass (itchgrass; PREEMERGENCE, Rate 250 g/ha) | Plant response rating, Johnsongrass (johnsongrass; POSTEMERGENCE, Rate 125 g/ha) | Plant response rating, Johnsongrass (johnsongrass; POSTEMERGENCE, Rate 250 g/ha) | Plant response rating, Johnsongrass (johnsongrass; PREEMERGENCE, Rate 125 g/ha) | Plant response rating, Johnsongrass (johnsongrass; PREEMERGENCE, Rate 250 g/ha) | Plant response rating, Large Crabgrass (large crabgrass; POSTEMERGENCE, Rate 125 g/ha) | Plant response rating, Large Crabgrass (large crabgrass; POSTEMERGENCE, Rate 250 g/ha) | Plant response rating, Large Crabgrass (large crabgrass; PREEMERGENCE, Rate 125 g/ha) | Plant response rating, Peanuts (peanut; POSTEMERGENCE, Rate 125 g/ha) | Plant response rating, Peanuts (peanut; POSTEMERGENCE, Rate 250 g/ha) | Plant response rating, Peanuts (peanut; PREEMERGENCE, Rate 125 g/ha) | Plant response rating, Peanuts (peanut; PREEMERGENCE, Rate 250 g/ha) | Plant response rating, Pit Morninglory (pitted morningglory; POSTEMERGENCE, Rate 125 g/ha) | Plant response rating, Pit Morninglory (pitted morningglory; POSTEMERGENCE, Rate 250 g/ha) | Plant response rating, Pit Morninglory (pitted morningglory; PREEMERGENCE, Rate 125 g/ha) | Plant response rating, Pit Morninglory (pitted morningglory; PREEMERGENCE, Rate 250 g/ha) | Plant response rating, S. Sandbur (sandbur; POSTEMERGENCE, Rate 125 g/ha) | Plant response rating, S. Sandbur (sandbur; POSTEMERGENCE, Rate 250 g/ha) | Plant response rating, S. Sandbur (sandbur; PREEMERGENCE, Rate 125 g/ha) | Plant response rating, S. Sandbur (sandbur; PREEMERGENCE, Rate 250 g/ha) | Plant response rating, Smooth Crabgras (smooth crabgrass; POSTEMERGENCE, Rate 125 g/ha) | Plant response rating, Smooth Crabgras (smooth crabgrass; POSTEMERGENCE, Rate 250 g/ha) | Plant response rating, Smooth Crabgras (smooth crabgrass; PREEMERGENCE, Rate 125 g/ha) | Plant response rating, Yellow Nutsedge (yellow nutsedge; POSTEMERGENCE) | Plant response rating, Yellow Nutsedge (yellow nutsedge; PREEMERGENCE)
50: Plant response rating, Bermudagrass (bermudagrass; PREEMERGENCE, Rate 250 g/ha) | Plant response rating, Cmn Purslane (common purslane; POSTEMERGENCE, Rate 250 g/ha)
40: Plant response rating, Goosegrass (goosegrass; PREEMERGENCE, Rate 250 g/ha)
70: Plant response rating, Cmn Purslane (common purslane; POSTEMERGENCE, Rate 125 g/ha) | Plant response rating, Large Crabgrass (large crabgrass; PREEMERGENCE, Rate 250 g/ha)
100: Plant response rating, Cmn Purslane (common purslane; PREEMERGENCE, Rate 250 g/ha)
